# Results reported in patent US6927234B2, “Xanthone derivatives, method of production thereof, and pharmaceutical composition containing the same” (Kuboyama Bio Ken Inc., priority 2003, dated 2005).
# Where two headings read alike, the source gives them in different places. Marks after values point to notes of the source that are not given here.
# Columns and labels:
# Sarcoma 180 [1] = test: Sarcoma 180 assay, oral gavage for five days, sacrifice on Day 10 (Example 4); assay type: in vivo, Swiss-Webster mice; conditions: for % Tumor Inhibition: sacrificed Day 10, female mice
# Procedure: (§1) The compound obtained in Example 1 was dissolved in ethyl alcohol at 10 mg/ml. Dilutions of this stock solution were made to 100, 10 and 1 mcg per kilo body weight of the mice. The Sarcoma 180 assay was carried out as described below.
# The tumor stock was a Sarcoma 180 which was started in the laboratory from an American Type Culture Collection. This stock culture has been passed at weekly intervals as an ascites in non-treated Swiss-Webster mice.
# (§2) The current studies were all carried out with Swiss-Webster mice obtained from Animal Technologics Ltd., Kent, Wash. To prepare the inoculum, the ascites fluid from a mouse with a 7-10 day ascites is aspirated using a sterile technique. Once a cell count is established, the tumor cells are diluted with normal saline or phosphate buffered saline to obtain a final concentration of 1 to 2×10^6 cells per mm^3. This is the tumor suspension that is then injected into the mice. The final dilution is plated on trypticase soy agar to determine if it is free of contamination.
# One tenth (0.1 ml) of the above suspension is inoculated into the left hind leg muscle (hamstring muscle mass) of each mouse. The inoculated mice are placed into one large cage and then randomly segregated into groups of five mice. The mice are housed in shoe box cages on wood shavings with free access to water and laboratory chow. The mice are weighed on the day of inoculation, on day 7, day 10, and at time of sacrifice.
# Treatment of the mice was initiated the day after transplant and then continued for five days.
# At the end of the observation period, 10 days, the mice are sacrificed either by cervical dislocation or ether anesthesia. The skin over the left hind leg is removed to expose the tumor and the leg and tumor are removed at the hip joint. Any residual skin is removed and the legs with tumors are weighed individually. Ten normal legs (right legs) are prepared in a similar manner and weighed. The mean value of the normal leg is subtracted from the weight of the leg with the tumor to give an estimate of the actual tumor weight.
# Sarcoma 180 [2] = test: Sarcoma 180 assay, oral dosing, 12-day treatment period (Example 5); assay type: in vivo, Swiss-Webster mice; conditions: 12 days treatment; for % Tumor Inhibition / Body wt. G (avg.): oral gavage
# Procedure: as §1
# The tumor stock was a Sarcoma 180, which was started in the laboratory from an American Type Culture Collection. This stock culture has been passed at weekly intervals as an ascites in non-treated Swiss-Webster mice.
# as §2, with “7-12” for “7-10”, “sterile technique. The tumor cells are checked for viability using the trypan-blue staining” for “sterile”
# One tenth (0.1 ml) of the above suspension is inoculated into the left hind leg muscle (hamstring muscle mass) of each mouse. The inoculated mice are placed into one large cage and then randomly segregated into groups of five mice. The mice are housed in shoe box cages on wood shavings with free access to water and laboratory chow. The mice are weighed on the day of inoculation, on day 7, day 12, and at time of sacrifice.
# Treatment of the mice was initiated the day after transplant. The treatment period was 12 days.
# At the end of the observation period, the mice are sacrificed by ether anesthesia. The skin over the left hind leg is removed to expose the tumor and the leg and tumor are removed at the hip joint. Any residual skin is removed and the legs with tumors are weighed individually. Ten normal legs (right legs) are prepared in a similar manner and weighed. The mean value of the normal leg is subtracted from the weight of the leg with the tumor to give an estimate of the actual tumor weight. [formula]
# [3] = tested on: adjuvant-induced arthritis; assay type: in vivo, Sprague-Dawley rats; conditions: gavage once per day for 7 days; for Rat paw wt.: five rats per group
# Procedure: Adjuvant-induced arthritis responds to both steroids and non-steroids. The degree of inflammation is assessed by measuring differences in foot weight and/or the foot volume.
# Rats weighing between 150-200 g were purchased from ATL, in Kent Wash. They were male Sprague-Dawley rats. The animals were kept individually in stainless steel cages with free access to water and feed (Harlan Teklan Rodent Diet). The light cycle was maintained at 12 hours light and 12 hours dark. The temperature was maintained at 22° C.±3° C. with a relative humidity of 40 to 70%.
# […] The test compound and hydrocortisone were given by gavage.
# The test materials were delivered orally (by gavage) once per day for 7 days.
# Male Sprague-Dawley rats (150-200 g) were sensitized by injecting Fruend's complete adjuvant (0.5% suspension of killed mycobacterium tuberculosis (H37RA, Difco, in mineral oil)). A 0.1 ml aliquot was administered intradermally at a plantar site on the right hind leg of each rat.
# The test materials were given orally (by gavage) to each of 5 rats per treatment group once per day for 7 days. Administration of the test materials was initiated on the day of sensitization.
# The left hind paw was measured just before sensitization an again on Day 7. The plantar edema inhibitory rate and the body weight gain were determined by comparison with the non-sensitized rat groups.
# The paw weights for each rat group were averaged. Anti-inflammatory activity was determined by comparing paw weights calculated as follows: [formula]
# Sarcoma 180 [4] = test: Sarcoma 180 assay, single intraperitoneal dose (Example 7); assay type: in vivo, Swiss-Webster mice
# Source text: [table] [table] The tumor stock was a Sarcoma 180 which was started in the laboratory from an American Type Culture Collection. This stock culture has been passed at weekly intervals as an ascites in non-treated Swiss-Webster mice. The current studies were all carried out with Swiss-Webster mice obtained from Animal Technologics Ltd., Kent, Wash. To prepare the inoculum, the ascites fluid from a mouse with a 7-10 day ascites is aspirated using a sterile technique. […] This was the tumor suspension that was then injected into the mice. The final dilution was plated on trypticase soy agar to determine if it was free of contamination. One tenth (0.1 ml) of the above suspension was inoculated into the left hind leg muscle (hamstring muscle mass) of each mouse. The inoculated mice were placed into one large cage and then randomly segregated into groups of five mice. The mice were housed in shoe box cages on wood shavings with free access to water and laboratory chow. The mice were weighed on the day of inoculation, on day 7, day 10, and at time of sacrifice. Treatment of the mice was initiated the day after transplant. At the end of the observation period, the mice were sacrificed by ether anesthesia. The skin over the left hind leg was removed to expose the tumor and the leg and tumor were removed at the hip joint. Any residual skin was removed and the legs with tumors were weighed individually. Ten normal legs (right legs) were prepared in a similar manner and weighed. The mean value of the normal leg was subtracted from the weight of the leg with the tumor to give an estimate of the actual tumor weight: […]
# [5] = 1 mg/kg, single dose intraperitoneally
# [6] = 10 mg/kg, single dose intraperitoneally
# [7] = 100 mg/kg, single dose intraperitoneally
smiles,measurement,setting,value
O=C(O)Cc1c2cc[nH]c2cc2c(=O)c3ccccc3oc12 [Compound of Example 1],% Tumor Inhibition,Sarcoma 180 [1]; 1 mcg/kg,43%
same,% Tumor Inhibition,Sarcoma 180 [1]; 10 mcg/kg,100%
same,% Tumor Inhibition,Sarcoma 180 [1]; 100 mcg/kg,100%
same,toxicity as indicated by the body weights,"Sarcoma 180 [1]; any dose (1, 10, 100 mcg/kg)",No toxicity
same,toxicity from final body weights,"Sarcoma 180 [2]; 1 and 10 mcg/kg, oral",not toxic
same,visible tumor,"Sarcoma 180 [2]; 1 and 10 mcg/kg, oral",no visible tumor
same,% Tumor Inhibition,Sarcoma 180 [2]; 1 mcg/kg,98.5* %
same,Body wt. G (avg.),Sarcoma 180 [2]; 1 mcg/kg,29.2 G
same,% Tumor Inhibition,Sarcoma 180 [2]; 10 mcg/kg,100* %
same,Body wt. G (avg.),Sarcoma 180 [2]; 10 mcg/kg,28.7 G
same,% Inhibition (rat paw inflammation),[3]; 1 mcg/kg body wt.,95.2%
same,Rat paw wt.,[3]; 1 mcg/kg body wt.,0.324 g
"O=c1c2ccccc2oc2ccccc12 [Compound of Example 3, Xanthone]",% Inhibition,Sarcoma 180 [4]; [5],80%
same,Net Tumor wt.,Sarcoma 180 [4]; [5],0.3 g
same,% Inhibition,Sarcoma 180 [4]; [6],100%
same,Net Tumor wt.,Sarcoma 180 [4]; [6],0 g
same,% Inhibition,Sarcoma 180 [4]; [7],100%
same,Net Tumor wt.,Sarcoma 180 [4]; [7],0 g
same,evidence of tumor,"Sarcoma 180 [4]; 10 and 100 mg/kg body weight, single dose intraperitoneally",no evidence of tumor
same,Body weight,"Sarcoma 180 [4]; Day 1, 1 mg/kg single ip",24.2 g
same,Body weight,"Sarcoma 180 [4]; Day 1, 10 mg/kg single ip",23.8 g
same,Body weight,"Sarcoma 180 [4]; Day 1, 100 mg/kg single ip",23.4 g
same,Body weight,"Sarcoma 180 [4]; Day 7, 1 mg/kg single ip",26 g
same,Body weight,"Sarcoma 180 [4]; Day 7, 10 mg/kg single ip",26.1 g
same,Body weight,"Sarcoma 180 [4]; Day 7, 100 mg/kg single ip",26.2 g
same,Body weight,"Sarcoma 180 [4]; Day 10, 1 mg/kg single ip",26.2 g
same,Body weight,"Sarcoma 180 [4]; Day 10, 10 mg/kg single ip",26.4 g
same,Body weight,"Sarcoma 180 [4]; Day 10, 100 mg/kg single ip",26.5 g
C[C@]12CCC(=O)C=C1CC[C@@H]1[C@@H]2[C@@H](O)C[C@@]2(C)[C@H]1CC[C@]2(O)C(=O)CO [hydrocortisone],% Inhibition (rat paw inflammation),[3]; 10 mg/kg body wt.,42%
same,Rat paw wt.,[3]; 10 mg/kg body wt.,0.98 g
